The values that follow come from ChEMBL document CHEMBL4622979, “Non-rigid Diarylmethyl Analogs of Baloxavir as Cap-Dependent Endonuclease Inhibitors of Influenza Viruses” (J Med Chem, 2020).

Each structure is given as a SMILES string. Activity calls are given as the source filed them. No cut-off for these calls is given here.

Data set [1] can be described thus: Ratio of AUClast in CD1 mouse lung to plasma assessed as baloxavir acid level at 15 mg/kg, po administered as single dose by LC-MS/MS analysis. The format is ADME, organism-based. To be noted: other tissue.
A short description of data set [2]: Protein binding in mouse plasma at 1 uM measured after 4 hrs by LC-MS/MS analysis. As to conditions: read-out: PPB (converted). The format is ADME, cell-free.
A short description of data set [3]: Stability in simulated intestinal fluid assessed as parent compound remaining at 1 uM measured after 4 hrs at pH 1.2 by LC-MS/MS analysis. The format is physicochemical. To be noted: read-out: Stability.
Data set [4] can be described thus: Protein binding in human plasma at 1 uM measured after 4 hrs by LC-MS/MS analysis. The format is ADME, cell-free. To be noted: read-out: PPB (converted).
Data set [5] relates to Influenza A virus. Briefly: Antiviral activity against Influenza A/California/04/2009 (H1N1)pdm09 infected in specific pathogen-free BALB/c mouse assessed as protection against virus-induced mouse death at 20 mg/kg, po administered via gavage immediately after infection and at 12 hrs post-infection measured on 16 days post-infection relative to control. The format is functional.

Data set [6] can be described thus: Half life in CD1 mouse small intestine assessed as baloxavir acid level at 15 mg/kg, po administered as single dose measured up to 24 hrs by LC-MS/MS analysis. The format is ADME, organism-based. To be noted: in vivo.
In data set [7] the test system is Influenza A virus. Kind of data set: Antiviral activity against Influenza A/California/04/2009 (H1N1)pdm09 infected in specific pathogen-free BALB/c mouse assessed as reduction in virus titre in lung at 50 mg/kg, po administered via gavage immediately after infection and at 12 hrs post-infection measured 24 hrs post-infection. The format is functional, organism-based.

Data set [8] can be described thus: Elimination rate constant in CD1 mouse plasma assessed as baloxavir acid level at 15 mg/kg, po administered as single dose measured up to 24 hrs by LC-MS/MS analysis. The format is ADME, organism-based. To be noted: in vivo.
A short description of data set [9]: Elimination rate constant in CD1 mouse spleen assessed as baloxavir acid level at 15 mg/kg, po administered as single dose measured up to 24 hrs by LC-MS/MS analysis. The format is ADME, organism-based. As to conditions: in vivo.
Data set [10] is described as follows: Tmax in CD1 mouse heart assessed as baloxavir acid level at 15 mg/kg, po administered as single dose measured up to 24 hrs by LC-MS/MS analysis. The format is ADME, organism-based. As to conditions: in vivo.
Data set [11] can be described thus: Toxicity in Influenza A/California/04/2009 (H1N1)pdm09 infected specific pathogen-free BALB/c mouse assessed as effect on body weight at 20 to 50 mg/kg, po administered via gavage immediately after infection and at 12 hrs post-infection measured after 10 days post-infection. The format is organism-based. As to conditions: in vivo, 240 h.
Data set [12] in a line: Protein binding in rat plasma at 1 uM measured after 4 hrs by LC-MS/MS analysis. The format is ADME, cell-free. To be noted: read-out: PPB (converted).
Data set [13] is described as follows: Half life in CD1 mouse heart assessed as baloxavir acid level at 15 mg/kg, po administered as single dose measured up to 24 hrs by LC-MS/MS analysis. The format is ADME, organism-based. To be noted: in vivo.
Data set [14] is described as follows: Oral bioavailability in CD1 mouse assessed as baloxavir acid level at 15 mg/kg administered as single dose by LC-MS/MS analysis. The format is ADME, organism-based. To be noted: in vivo.
For data set [15], the system named is Influenza A virus. Kind of data set: Antiviral activity against Influenza A/California/04/2009 (H1N1)pdm09 infected in specific pathogen-free BALB/c mouse assessed as protection against virus-induced mouse death at 50 mg/kg, po administered via gavage immediately after infection and at 12 hrs post-infection measured on 16 days post-infection relative to control. The format is functional.

Data set [16] is described as follows: AUCinfinity in CD1 mouse blood assessed as baloxavir acid level at 15 mg/kg, po administered as single dose measured up to 24 hrs by LC-MS/MS analysis. The format is ADME, organism-based. More on the design: dose 15 mg/kg, time infinity, route oral. To be noted: in vivo.
Data set [17] is described as follows: Stability in simulated gastric fluid assessed as parent compound remaining at 1 uM measured after 4 hrs at pH 1.2 by LC-MS/MS analysis. The format is physicochemical. To be noted: read-out: Stability.
Data set [18] in a line: AUCinfinity in CD1 mouse brain assessed as baloxavir acid level at 15 mg/kg, po administered as single dose measured up to 24 hrs by LC-MS/MS analysis. The format is ADME, organism-based. On the set-up: dose 15 mg/kg, time infinity, route oral. To be noted: in vivo.
A short description of data set [19]: Elimination rate constant in CD1 mouse spleen assessed as (12aR)-12-(Diphenylmethyl)-7-hydroxy-3,4,12,12a-tetrahydro-1H-[1,4]oxazino[3,4-c]pyrido[2,1-f ][1,2,4]triazine-6,8-dione level at 15 mg/kg, po administered as single dose measured up to 24 hrs by LC-MS/MS analysis. The format is ADME, organism-based. To be noted: in vivo.
Data set [20] in a line: Ratio of AUClast in CD1 mouse trachea to plasma assessed as (12aR)-12-(Diphenylmethyl)-7-hydroxy-3,4,12,12a-tetrahydro-1H-[1,4]oxazino[3,4-c]pyrido[2,1-f ][1,2,4]triazine-6,8-dione level at 15 mg/kg, po administered as single dose measured up to 24 hrs by LC-MS/MS analysis. The format is ADME, organism-based. To be noted: in vivo.
The nature of data set [21]: Ratio of AUClast in CD1 mouse muscle to plasma assessed as (12aR)-12-(Diphenylmethyl)-7-hydroxy-3,4,12,12a-tetrahydro-1H-[1,4]oxazino[3,4-c]pyrido[2,1-f ][1,2,4]triazine-6,8-dione level at 15 mg/kg, po administered as single dose measured up to 24 hrs by LC-MS/MS analysis. The format is ADME, organism-based. As to conditions: other tissue.
Data set [22] can be described thus: Ratio of free drug level in CD1 mouse blood assessed as (12aR)-12-(Diphenylmethyl)-7-hydroxy-3,4,12,12a-tetrahydro-1H-[1,4]oxazino[3,4-c]pyrido[2,1-f ][1,2,4]triazine-6,8-dione level at 20 mg/kg, po to EC50 for antiviral activity against Influenza A/California/04/2009 (H1N1)pdm09 infected in MDCK cells. The format is ADME, organism-based. To be noted: in vivo.

The nature of data set [23]: Elimination rate constant in CD1 mouse heart assessed as (12aR)-12-(Diphenylmethyl)-7-hydroxy-3,4,12,12a-tetrahydro-1H-[1,4]oxazino[3,4-c]pyrido[2,1-f ][1,2,4]triazine-6,8-dione level at 15 mg/kg, po administered as single dose measured up to 24 hrs by LC-MS/MS analysis. The format is ADME, organism-based. To be noted: in vivo.
Data set [24] in a line: Cmax in CD1 mouse blood assessed as (12aR)-12-(Diphenylmethyl)-7-hydroxy-3,4,12,12a-tetrahydro-1H-[1,4]oxazino[3,4-c]pyrido[2,1-f ][1,2,4]triazine-6,8-dione level at 15 mg/kg, po administered as single dose measured up to 24 hrs by LC-MS/MS analysis. The format is ADME, organism-based. On the set-up: dose 15 mg/kg, route oral. As to conditions: in vivo.
A short description of data set [25]: Cytotoxicity against human HepG2 cells assessed as reduction in cell viability measured after 24 hrs in presence of glucose by MTT assay. The format is cell-based.
Data set [26] can be described thus: MRTlast in CD1 mouse small intestine assessed as (12aR)-12-(Diphenylmethyl)-7-hydroxy-3,4,12,12a-tetrahydro-1H-[1,4]oxazino[3,4-c]pyrido[2,1-f ][1,2,4]triazine-6,8-dione level at 15 mg/kg, po administered as single dose measured up to 24 hrs by LC-MS/MS analysis. The format is ADME, organism-based. As to conditions: in vivo.
The nature of data set [27]: Tmax in CD1 mouse spleen assessed as (12aR)-12-(Diphenylmethyl)-7-hydroxy-3,4,12,12a-tetrahydro-1H-[1,4]oxazino[3,4-c]pyrido[2,1-f ][1,2,4]triazine-6,8-dione level at 15 mg/kg, po administered as single dose measured up to 24 hrs by LC-MS/MS analysis. The format is ADME, organism-based. To be noted: in vivo.

Consider `COC(=O)OCOc1c2n(ccc1=O)N([C@@H]1c3ccccc3SCc3c1ccc(F)c3F)[C@@H]1COCCN1C2=O` [BALOXAVIR MARBOXIL], for which, in data set [1], the “Ratio AUC” value is recorded as 16.7. Besides, the fraction unbound at 4 h, 1 µM in data set [2] was 0.08; in data set [4], 0.057; in [12], 0.064. The remaining at 4 h, 1 µM is 87.9% in data set [3] and 101% in [17]. Moreover, the Activity was 80% with Influenza A virus [5], “Non-Toxic” in [11] and 90% with Influenza A virus [15]. Further, the t1/2 stood at 3.13 h in [6] and 3.4 h in data set [13]. The outcome with Influenza A virus [7] was Active. Besides, the figures for the Kel in data set [8] and in [9] were 0.18 h⁻¹ and 0.2 h⁻¹, respectively. In addition, the Tmax in data set [10] is 2 h. In data set [14], the F is on record as 26.9%. Also, the AUC was determined as 1390 ng·h/g in data set [16] and 411 ng·h/g in data set [18].
Consider `COC(=O)OCOc1c2n(ccc1=O)N(C(c1ccccc1)c1ccccc1)[C@@H]1COCCN1C2=O`, for which the fraction unbound at 4 h, 1 µM was 0.009 in [2], 0.01 in data set [4] and 0.016 in data set [12]. Also, the remaining at 4 h, 1 µM in data set [3] is 93.7%; in data set [17], 94.8%. In addition, the Kel in [19] is 0.39 h⁻¹; in [23], 0.41 h⁻¹. Further, the “Ratio AUC” value in [20] worked out at 3.22; in data set [21], 2.26. Moreover, the values for the Activity (in the data set with Influenza A virus [5]; in data set [11]; in the data set with Influenza A virus [15]) were 80%, “Non-Toxic” and 80%, respectively. In data set [22], the Ratio stood at 18. Further, in [24], the Cmax came out at 951 ng/g. For the same molecule, the outcome with Influenza A virus [7] was Active. Besides, in data set [25], the CC50 at 24 h was determined as 51 µM. The MRTlast in data set [26] was 1.28 h. Further, in data set [27], the Tmax was 0.5 h.
